One series concerns fibroid xenografts. In words: Immunohistochemistry and Masson's trichrome staining of xenografts (Example 1). It is filed as in vivo, SCID/Beige mice. Here is the method:
Tissues were fixed in 4% paraformaldehyde and subsequently embedded in paraffin, and 5-micron sections were cut and mounted onto glass slides. Staining procedures, including Masson's trichrome stain (HT15-1 KT, Sigma-Aldrich), and immunohistochemistry, were conducted as previously described. Primary antibodies utilized in this study included rabbit anti-Ki67 (dilution 1:250, 27309-1-AP, Proteintech Group, Inc, Rosemont, IL, USA), rabbit anti-cleaved caspase-3 (dilution 1:50, #9664, Cell Signaling Technology, Danvers, MA, USA), rabbit anti-CCND1 (dilution 1:50, #55506, Cell Signaling Technology), and mouse anti-E2F1 (dilution 1:50, sc-251, Santa Cruz Biotechnology, Inc., Dallas, TX, USA).

Series [1] is described as follows: Safety test, plasma chemistry panel (Example 2). The series is classed as in vivo, SCID/Beige mice. The conditions noted are these: 5 mg/kg i.p. On the procedure:
In order to determine if Bay 11-7082 administration was safe, the plasma collected from the mice was tested after 8 weeks of treatment with vehicle or Bay 11-7082. The plasma (100 μL) was pipetted into the Comprehensive Diagnostic Profile Rotor (#500-1038, Abaxis, Union City, CA, USA) and the values of glucose, creatinine, BUN, phosphorus, sodium, albumin, alkaline phosphatase, serum glutamic pyruvic transaminase (SGPT; ALT), total protein, globulin, total bilirubin and amylase were analyzed using VetScan VS2 chemistry analyzer (Abaxis, Union City, CA, USA).

Another series relates to human fibroid explants. In words: Fibroid explant culture, qRT-PCR. The series is classed as cell-based. The settings on record: 5 μM, 48 hours. On the procedure: Quantitative RT-PCR was performed as previously described. Selected gene expression levels were assessed utilizing the Invitrogen StepOne System, with normalization against 18S. Triplicate reactions were conducted, and relative mRNA expression was calculated using the comparative cycle threshold method (2−ΔΔCt), with results presented as fold change relative to the control group. The primer sequences used are shown in the following Sequence Table:
Equal weights of fibroid explants, aseptically cut from the same patient, were plated in 6-well plates containing complete medium. They were then incubated for 48 hours with either vehicle or Bay (5 μM).
(In general: In qPCR the cycle at which signal appears reflects the starting amount.)

In another series the test system is human fibroid xenograft. As to the kind of experiment: Human fibroid xenograft mouse model, tumor weight (Example 1). The series is classed as in vivo, ovariectomized CB-17 SCID/Beige mice. The settings on record: 20 mg/kg daily i.p., two months (8 weeks), vs matched vehicle. From the text: Portions of intramural uterine fibroids (2-5 cm diameter) were obtained from hysterectomies performed at Harbor-UCLA Medical Center for symptomatic fibroids (n=10). Prior approval was secured from the Institutional Review Board (18CR-31752-01 R) at the Lundquist Institute. Tissues were exclusively sourced from premenopausal patients who had not been treated with hormonal medications for at least 3 months before surgery. The fibroids used in this study were sourced from African American (n=2) and Hispanic (n=8) women aged between 35-50 years (mean 43±4.8 years). The MED12 mutation status of all fibroids was determined by PCR amplification and Sanger sequencing (Laragen Inc., Culver City, CA, USA). […] Informed consent was obtained from all participants. A segment of each tumor was allocated for in vivo studies, and the remaining tissues were promptly snap-frozen and stored in liquid nitrogen for further analysis as previously described. This selection process for tumors was aimed at minimizing variance among fibroids.
(In general: Xenograft models place foreign cells or tissue in a host animal.)

As for `Cc1ccc(S(=O)(=O)/C=C/C#N)cc1` [Bay 11-7082], in the series with fibroid xenografts (20 mg/kg daily, 8 weeks), the “expression of cell cycle markers CCND1 and E2F1 (IHC)” value was “decreased expression”; the “expression of collagens (Masson's trichrome staining)” value is listed as “significant decrease”; the “expression of proliferation marker Ki67 (IHC)” value is recorded as “significant reduction”; the “smooth muscle content (Masson's trichrome staining)” value is reported as “no significant differences”. For the same molecule, the “Cleaved caspase 3 staining (IHC)” value with fibroid xenografts (drug versus vehicle) is “no significant difference”. The “adverse effects in blood plasma chemistry panel (glucose, kidney function, electrolytes, liver function, pancreatic amylase)” value in series [1] (8 weeks) was “no adverse effects”. In series [1] (plasma after 8 weeks), the “Albumin (mean ± SEM)” value turned out to be 3.5 ± 0.14 g/dL, the “Alkaline phosphatase (mean ± SEM)” value is given as 91.9 ± 20.05 U/l, the “Amylase (mean ± SEM)” value amounted to 643.0 ± 36.82 U/l and the “BUN (mean ± SEM)” value was 27.1 ± 5.75 mg/dL. In series [1] (plasma after 8 weeks), the “Creatinine (mean ± SEM)” value was 0.4 ± 0.03 mg/dL, the “Globulin (mean ± SEM)” value amounted to 1.1 ± 0.24 g/dL, the “Glucose (mean ± SEM)” value came out at 261.0 ± 14.63 mg/dL and the “Phosphorus (mean ± SEM)” value is 10.1 ± 0.53 mg/dL. Also, in series [1] (plasma after 8 weeks), the “SGPT (ALT) (mean ± SEM)” value is 54.5 ± 8.71 U/l, the “Sodium (mean ± SEM)” value is reported as 155.3 ± 1.35 mEq/l, the “Total bilirubin (mean ± SEM)” value worked out at 0.3 ± 0.04 mg/dL and the “Total protein (mean ± SEM)” value worked out at 4.6 ± 0.16 g/dL. In the series with human fibroid explants, the “mRNA levels of TLR3, TLR6, MyD88, TNFα, ESR1, HTR1B, TNFRSF11A” value is reported as “without significant effects” and the “mRNA levels of VEGFC, TDO2, TGFB3, LOX, E2F1, PRL, PGR, CKS2, SPARC, COL3A1, FN1, CCND1, IL8, IL6, IL1β” value was “significant inhibition”. Also, in the series with human fibroid explants (fibroid explants), the “expression of miR-29c and miR-200c” value is recorded as “significant increase”. In addition, in the series with human fibroid xenograft, the “reduction of tumor weight” value worked out at 50%.

The record behind these values is patent US20240415801A1, “Methods and Compositions for Treating Fibroids” (Lundquist Institute for Biomedical Innovation at …, priority 2023, published 2024).
